23 compounds from ChEMBL document CHEMBL1126549, “A novel series of selective, non-peptide inhibitors of angiotensin II binding to the AT2 site” (J Med Chem, 1993) can be followed below.

For test [1], the target named is T1, Angiotensin II receptor (AT-1) type-1 (Rattus norvegicus, UniProt P29089+P25095).
T1 sequence (P29089 whole entry): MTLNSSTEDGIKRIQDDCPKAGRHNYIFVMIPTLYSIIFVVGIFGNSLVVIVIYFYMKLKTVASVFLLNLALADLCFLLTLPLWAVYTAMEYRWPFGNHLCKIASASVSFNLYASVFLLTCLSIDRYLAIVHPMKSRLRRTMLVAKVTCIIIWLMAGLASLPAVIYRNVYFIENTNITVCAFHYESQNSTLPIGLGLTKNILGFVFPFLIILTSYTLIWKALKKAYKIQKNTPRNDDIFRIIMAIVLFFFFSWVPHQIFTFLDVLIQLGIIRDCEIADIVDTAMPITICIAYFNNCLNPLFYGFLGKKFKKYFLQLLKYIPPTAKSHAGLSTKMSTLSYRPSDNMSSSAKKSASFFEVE
T1 sequence (P25095 whole entry): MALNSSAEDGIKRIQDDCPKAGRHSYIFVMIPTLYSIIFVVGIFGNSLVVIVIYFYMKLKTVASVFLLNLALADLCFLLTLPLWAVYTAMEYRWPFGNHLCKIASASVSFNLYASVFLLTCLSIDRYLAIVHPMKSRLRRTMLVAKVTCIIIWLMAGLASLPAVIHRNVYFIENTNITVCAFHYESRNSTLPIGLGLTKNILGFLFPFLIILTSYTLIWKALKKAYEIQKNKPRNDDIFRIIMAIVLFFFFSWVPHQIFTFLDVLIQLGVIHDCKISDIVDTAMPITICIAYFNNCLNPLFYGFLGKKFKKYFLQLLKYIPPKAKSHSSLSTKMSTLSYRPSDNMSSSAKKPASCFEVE
The test is described as follows: Binding affinity towards Angiotensin II receptor, type 1 in rat isolated adrenal cortical microsomes. Further details: species or system Microsome.

The target in test [2] is T2, Type-2 angiotensin II receptor (Rattus norvegicus, UniProt P35351).
T2 sequence (P35351 whole entry): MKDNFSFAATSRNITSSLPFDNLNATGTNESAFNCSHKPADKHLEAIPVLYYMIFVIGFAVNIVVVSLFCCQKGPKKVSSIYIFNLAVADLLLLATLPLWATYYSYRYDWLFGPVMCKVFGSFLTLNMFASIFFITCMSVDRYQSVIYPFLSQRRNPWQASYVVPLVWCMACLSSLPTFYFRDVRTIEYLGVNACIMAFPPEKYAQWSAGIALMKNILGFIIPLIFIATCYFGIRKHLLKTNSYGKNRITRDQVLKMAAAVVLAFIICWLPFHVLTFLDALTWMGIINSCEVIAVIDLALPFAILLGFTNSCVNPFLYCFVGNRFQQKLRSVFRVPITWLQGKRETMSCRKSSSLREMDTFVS
The test is described as follows: Binding affinity towards Angiotensin II receptor, type 2 in rat isolated adrenal medullary microsomes. Further details: species or system Adrenal medulla, Microsome.

The target of test [3] is T2, Type-2 angiotensin II receptor. The test is described as follows: Binding affinity towards angiotensin II AT2 receptor subtype was determined using rat isolated adrenal […] microsomes.

pIC50: −log10 of the molar value.

For orientation: IC50 means the concentration that inhibits the measured activity by half. By pIC50 is commonly meant −log10 of the IC50, conventionally taken in molar units. Read a high pIC50 as a small IC50. For the compound `COC(=O)C1Cc2c(C)cccc2CN1C(=O)C(c1ccccc1)c1ccccc1` (centres undefined), the IC50 in test [1] was over 10000 nM. Besides, the pIC50 in test [2] is 5.30.

In the case of `Cc1cccc2c1CC(C(=O)O)N(C(=O)C(c1ccccc1)c1ccccc1)C2` (centres undefined), the half-maximal inhibitory concentration (IC50) in test [1] was over 10000 nM. The same compound showed a pIC50 in test [2] of 6.52.

`O=C(O)C1Cc2c(cccc2-c2ccccc2)CN1C(=O)C(c1ccccc1)c1ccccc1` (centres undefined) returned an IC50 in test [1] of over 10000 nM. Also, the pIC50 in test [2] was 7.40.

Compound `COC(=O)C1Cc2c(Cc3ccc(OC)cc3)cccc2CN1C(=O)C(c1ccccc1)c1ccccc1` (centres undefined) registered a concentration for half-maximal inhibition (IC50) in test [1] of over 10000 nM. In test [2], the pIC50 is under 5.00.

Turning to `O=C(O)C1Cc2ccccc2CN1C(=O)C(c1ccccc1)c1ccccc1` (centres undefined), the IC50 in test [1] is over 30000 nM. In test [2], this compound gave a negative-log IC50 (pIC50) of 5.60.

For `O=C(O)C1Cc2cc(-c3ccccc3)ccc2CN1C(=O)C(c1ccccc1)c1ccccc1` (centres undefined), the 50% inhibitory concentration (IC50) in test [1] is over 10000 nM. Also, the negative logarithm of the IC50 (pIC50) in test [2] was 7.52.

With `CN(C(=O)N1Cc2ccc(Oc3ccccc3)cc2CC1C(=O)O)c1ccccc1` (centres undefined), the IC50 in test [1] is over 10000 nM. This compound also gave a pIC50 in test [2] of 6.52.

For `COc1ccc(Cc2cccc3c2CC(C(=O)O)N(C(=O)N(c2ccccc2)c2ccccc2)C3)cc1` (centres undefined), the IC50 in test [1] turned out to be 10000 nM. Besides, the pIC50 in test [2] is 6.70.

Take `COc1ccc(Cn2cnc3c2C[C@@H](C(=O)O)N(C(=O)C(c2ccccc2)c2ccccc2)C3)cc1C`: the negative logarithm of the IC50 (pIC50) in test [3] was 8.00.

In turn, `CCCCCc1cccc2c1CC(C(=O)O)N(C(=O)C(c1ccccc1)c1ccccc1)C2` (centres undefined) showed an IC50 in test [1] of over 10000 nM. In test [2], this compound showed a pIC50 of 7.40.

As to `COc1ccc(Cc2cccc3c2CC(C(=O)O)N(C(=O)C(c2ccccc2)c2ccccc2)C3)cc1C` (centres undefined), the IC50 in test [1] was 5000 nM. Further, the pIC50 in test [2] was 7.00.

Regarding `COc1ccc(Cc2cccc3c2CC(C(=O)O)N(C(=O)C(c2ccccc2)c2ccccc2)C3)cc1` (centres undefined), in test [1], the 50% inhibitory concentration (IC50) is 7000 nM. In addition, the pIC50 in test [2] was 7.05.

Consider `COc1ccc(-c2cccc3c2CC(C(=O)O)N(C(=O)C(c2ccccc2)c2ccccc2)C3)cc1C` (centres undefined), for which the 50% inhibitory concentration (IC50) in test [1] is over 10000 nM. For the same compound, in test [2], the negative-log IC50 (pIC50) is 7.15.

In test [1], `COC(=O)C1Cc2c(Cc3ccccc3)cccc2CN1C(=O)C(c1ccccc1)c1ccccc1` (centres undefined) displayed an IC50 of over 10000 nM. For the same compound, in test [2], the negative logarithm of the IC50 (pIC50) is 5.15.

Take `COc1ccc(Cc2cccc3c2CC(C(=O)O)N(C(=O)N(C)c2ccccc2)C3)cc1` (centres undefined): the half-maximal inhibitory concentration (IC50) in test [1] was over 10000 nM. This compound gave a negative logarithm of the IC50 (pIC50) in test [2] of 6.40.

As to `O=C(O)C1Cc2cc(Oc3ccccc3)ccc2CN1C(=O)C(c1ccccc1)c1ccccc1` (centres undefined), the concentration for half-maximal inhibition (IC50) in test [1] was over 10000 nM. In test [2], this compound had a negative logarithm of the IC50 (pIC50) of 7.22.

Regarding `COc1ccc(-c2cccc3c2CC(C(=O)O)N(C(=O)C(c2ccccc2)c2ccccc2)C3)cc1` (centres undefined), the IC50 in test [1] was 10000 nM. Further, in test [2], the pIC50 is 7.40.

Compound `O=C(O)C1Cc2cc(O)ccc2CN1C(=O)C(c1ccccc1)c1ccccc1` (centres undefined) gave a concentration for half-maximal inhibition (IC50) in test [1] of over 10000 nM. In addition, the pIC50 in test [2] is 6.22.

`COC(=O)C1Cc2c(cccc2-c2ccc(OC)cc2)CN1C(=O)C(c1ccccc1)c1ccccc1` (centres undefined) came in with an IC50 in test [1] of over 10000 nM. Further, the pIC50 in test [2] is 5.70.

Consider `COC(=O)C1Cc2c(cccc2-c2ccccc2)CN1C(=O)C(c1ccccc1)c1ccccc1` (centres undefined), for which the half-maximal inhibitory concentration (IC50) in test [1] is over 10000 nM. The pIC50 in test [2] is 5.70.

For `O=C(O)C1Cc2c(Cc3ccccc3)cccc2CN1C(=O)C(c1ccccc1)c1ccccc1` (stereo in doubt; 21), in test [1], the IC50 turned out to be 10000 nM. Further, in test [2], the negative logarithm of the IC50 (pIC50) was 7.05.

In test [2], `O=C(O)C1Cc2c(Cc3ccccc3)cccc2CN1C(=O)C(c1ccccc1)c1ccccc1` (stereo in doubt; 22) gave a negative-log IC50 (pIC50) of 7.15.

`O=C(O)C1Cc2c(Cc3ccccc3)cccc2CN1C(=O)C(c1ccccc1)c1ccccc1` (stereo in doubt; 23): the half-maximal inhibitory concentration (IC50) in test [1] was 4000 nM. The pIC50 in test [2] was 7.10.
